# Key:
# [1] = tested on: cholesterol absorption; test: in vivo cholesterol absorption study, serum radioactivity after oral [4-^14C] cholesterol; details: Rattus norvegicus, 6 h, normal rats, serum radioactivity at six hours, vs control, read-out: Decrease in [^14C] Cholesterol Absorption
# Description: The in vivo cholesterol absorption studies were conducted in normal rats by oral administration of the compound being tested in propylene glycol and olive oil followed by oral administration of [4-^14 C] cholesterol in propylene glycol and olive oil, otherwise following the procedure of Cayen et al., J. Lipid Res. 20 162 (1979). The serum radioactivity was measured at six hours after dosing. The results of this study are reported in the following Table, where available, as percent decrease compared to control and in terms of the effective dose (ED50) inhibiting fifty-percent of the absorption of the control animals.
# [2] = target: T1, cholesterol esterase (EC 3.1.1.13) (Bos taurus, UniProt P30122); test: in vitro inhibition of cholesteryl ester formation by cholesterol esterase; format: biochemical, bovine; details: 37° C., cholesterol and oleic acid, cholesterol esterase from bovine pancreas; read-out: IC50 (concentration that inhibits one-half of the ester formation)
# T1 construct: purchased Sigma Chemical Company, St. Louis, Mo., USA C-1892; host or cells: bovine pancreas
# Description: The ability of the compounds of this invention to inhibit the formation of cholesteryl esters and thereby interfere with and prevent assimilation of cholesterol into the lymphatic system and ultimately the blood stream was established by incubating the compounds at 37° C. with a mixture of cholesterol and oleic acid in the presence of buffered cholesterol esterase [(EC 3.1.1.13) Sigma Chemical Company, St. Louis, Mo., USA, No. C-1892, from bovine pancreas] and measuring the amount of ester formed, according to the procedure of Field, J. of Lipid Research, 25 389 (1984).
# T1 sequence (P30122 19-597): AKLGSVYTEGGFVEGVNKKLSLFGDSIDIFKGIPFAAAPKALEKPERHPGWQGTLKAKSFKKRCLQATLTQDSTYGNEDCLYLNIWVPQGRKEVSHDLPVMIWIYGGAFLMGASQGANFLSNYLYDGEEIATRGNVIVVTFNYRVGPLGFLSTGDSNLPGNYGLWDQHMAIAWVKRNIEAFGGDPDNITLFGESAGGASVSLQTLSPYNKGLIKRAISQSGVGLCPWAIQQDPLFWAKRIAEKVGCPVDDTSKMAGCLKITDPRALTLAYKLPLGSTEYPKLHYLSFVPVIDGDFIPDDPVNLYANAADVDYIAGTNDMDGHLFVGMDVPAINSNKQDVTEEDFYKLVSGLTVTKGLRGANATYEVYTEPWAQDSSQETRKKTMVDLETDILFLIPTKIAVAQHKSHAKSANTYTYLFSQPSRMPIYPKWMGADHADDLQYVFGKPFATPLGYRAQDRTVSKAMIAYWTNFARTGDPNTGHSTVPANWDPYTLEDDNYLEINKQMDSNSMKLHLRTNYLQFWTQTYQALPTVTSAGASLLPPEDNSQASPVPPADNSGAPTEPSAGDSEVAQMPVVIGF
Structure (SMILES),inhibition in vivo at 50 mg/kg [1] [%],IC50 [2] [nM],inhibition in vivo at 10 mg/kg ([1]; 10 mg/kg) [%],inhibition in vivo at 100 mg/kg [1] [%],inhibition in vivo at 20 mg/kg [1] [%]
"O=C(Oc1ccc(Oc2ccccc2)cc1)N1CCC(O)CC1 [Example 44, 4-Hydroxy1-piperidinecarboxylic acid 4-phenoxyphenyl ester]",49,1900,–,–,–
"CCCC1CCN(C(=O)Oc2ccc(Oc3ccccc3)cc2)CC1 [Example 45, 4Propyl-1-piperidinecarboxylic acid 4-phenoxyphenyl ester]",–,70,41,–,–
"O=C(O)C1CCN(C(=O)Oc2ccc(Oc3ccccc3)cc2)CC1 [Example 46, 1.4-Piperidinedicarboxylic acid 1-(1-phenoxyphenyl ester)]",–,44000,–,55,–
"CC1(C)CCCN(C(=O)Oc2ccc(Oc3ccccc3)cc2)C1 [Example 47, 3,3-Dimethyl-1-piperidinecarboxylic acid 4-phenoxyphenyl ester]",–,1600,–,–,67
"CC(=O)OC1CCN(C(=O)Oc2ccc(Oc3ccccc3)cc2)CC1 [Example 48, 4-(Acetyloxy)-1-piperidinecarboxylic acid 4-phenoxyphenyl ester]",41,540,–,–,–
"COC(=O)c1cc(Oc2ccccc2)ccc1OC(=O)N1CCC(C)CC1 [Example 49, 4-Methyl-1-piperidinecarboxylic acid 2-(methoxycarbonyl)-4-phenoxyphenyl ester]",28,340,–,–,–
"CC(C)C1CCN(C(=O)Oc2ccc(Oc3ccccc3)cc2)CC1 [Example 51, 4-(1-Methylethyl)-1-piperidinecarboxylic acid 4-phenoxyphenyl ester]",–,250,–,–,66
"O=C(Oc1ccc(Oc2ccccc2)cc1)N1CCC2(CCCC2)CC1 [Example 52, 8-Azaspiro[4,5]decan-8-carboxylic acid 4-phenoxyphenyl ester]",78,750,–,–,–
"CCCCCCCCCCCCOC(=O)C1CCN(C(=O)Oc2ccc(Oc3ccccc3)cc2)CC1 [Example 53, 1,4-Piperidinedicarboxylic acid 4-dodecyl 1-(4-phenoxyphenyl) diester]",–,> 100000,–,44,–
"CC1CCN(C(=O)Oc2ccc(Oc3ccccc3)cc2C#N)CC1 [Example 54, 4-Methyl-1-piperidinecarboxylic acid 2-cyano-4-phenoxyphenyl ester]",36,440,–,–,–
CC1CCN(C(=O)Oc2ccc(Oc3ccccc3)cc2C(=O)O)CC1 [Example 55],16,31300,–,–,–
"O=C(Oc1ccc(Oc2ccccc2)cc1)N1CCC(CBr)CC1 [Example 57, 4-(Bromomethyl)-1-piperidinecarboxylic acid, 4-phenoxyphenyl ester]",87,80,–,–,–
"CCCCCCCCCCCCOC(=O)c1cc(Oc2ccccc2)ccc1OC(=O)N1CCC(C)CC1 [Example 58, 4-Methyl-1-piperidinecarboxylic acid 2-(dodecycloxycarbonyl)-4-phenoxyphenyl ester]",37,340,–,–,–
CCN(CC)CC1CCN(C(=O)Oc2ccc(Oc3ccccc3)cc2)CC1 [Example 60],49,> 100000,–,–,–
"CC[N+](CC)(CC)CC1CCN(C(=O)Oc2ccc(Oc3ccccc3)cc2)CC1 [Example 61, Triethyl 1-[(4-phenoxyphenoxy)carbonyl]-4-piperidinemethanaminium iodide]",33,> 100000,–,–,–
"CC1CCCCN1C(=O)Oc1ccc(Oc2ccccc2)cc1 (stereo not shown) [Example 63, 2-Methyl-1-piperidinecarboxylic acid 4-phenoxyphenyl ester]",68,> 100000,–,–,–
"CCCCCCCC/C=C\CCCCCCCCNC(=O)Oc1ccc(Oc2ccccc2)cc1 [Example 67, (Z)-9-Octadecenylcarbamic acid 4-phenoxyphenyl ester]",–,626000,–,49,–
